Measurements from EP4603105A1, “PHARMACEUTICAL COMPOSITION CONTAINING CYCLIC COMPOUND HAVING SELECTIVE KRAS INHIBITORY EFFECT AGAINST HRAS AND NRAS” (CHUGAI SEIYAKU KABUSHIKI KAISHA, priority 2022, dated 2024).
Where a SMILES comes first, the peptide text is derived from it. Bridges are numbered along the chain shown (N, C = ends). [ ]: non-standard residue; d: D form. The star is where a group is joined. hPhe(3-Cl-4-CF3) = N[C@@H](CCc1ccc(C(F)(F)F)c(Cl)c1)C(=O)O; NPrPhe(4-CF3) = CCCN[C@@H](Cc1ccc(C(F)(F)F)cc1)C(=O)O; hPhe(3,4-Cl2) = N[C@@H](CCc1ccc(Cl)c(Cl)c1)C(=O)O; NMePhe(4-Me) = CN[C@@H](Cc1ccc(C)cc1)C(=O)O; NMeGly(cPent) = CN[C@H](C(=O)O)C1CCCC1; Hyp = O=C(O)[C@@H]1C[C@@H](O)CN1; NMeD = CN[C@@H](CC(=O)O)C(=O)O; NMeL = CN[C@@H](CC(C)C)C(=O)O; Morpholide = C1CN(*)CCO1; Ac5c = NC1(C(=O)O)CCCC1; Aze = O=C(O)[C@@H]1CCN1; Ac4c = NC1(C(=O)O)CCC1; NBuGly = CCCCNCC(=O)O; Sar = CNCC(=O)O

Legend:
[1] = biological target: HRAS wild-type protein (Homo sapiens, UniProt P01112); experiment: Binding to HRAS by surface plasmon resonance (SPR), KD and KD ratio to KRAS
HRAS wild-type protein, sequence (P01112 whole entry): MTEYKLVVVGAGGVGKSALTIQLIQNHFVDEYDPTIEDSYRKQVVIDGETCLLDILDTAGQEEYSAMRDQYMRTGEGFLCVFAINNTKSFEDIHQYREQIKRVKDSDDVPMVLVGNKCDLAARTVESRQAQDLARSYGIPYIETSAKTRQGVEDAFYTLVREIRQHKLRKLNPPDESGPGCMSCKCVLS
Summary of the method: (§1)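 SPR, 30°C: Avi-biotin RAS·GDP captured via Biotin CAPture (~100–300 RU); running buffer HBS pH 7.4, 1 mM DTT, 10 mM MgCl2, 0.01% Tween 20, 10 µM GDP, 4% DMSO. Single-cycle kinetics, 100 µL/min, 75 s injections; 1:1 model → KD.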

[2] = biological target: GDP-bound NRAS wild-type protein (Homo sapiens, UniProt P01111); experiment: Binding to NRAS by surface plasmon resonance (SPR), KD and KD ratio to KRAS
GDP-bound NRAS wild-type protein, sequence (P01111 whole entry): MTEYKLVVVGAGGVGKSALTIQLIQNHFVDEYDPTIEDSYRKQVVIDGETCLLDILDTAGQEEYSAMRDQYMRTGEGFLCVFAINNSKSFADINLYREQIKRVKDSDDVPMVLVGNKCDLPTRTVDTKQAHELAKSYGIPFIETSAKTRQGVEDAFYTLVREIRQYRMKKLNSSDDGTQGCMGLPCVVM
Summary of the method: as §1

[3] = system: human lung cancer strain NCI-H441; type: cell-based
Summary of the method: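 Proliferation was scored by […] measured after the reagent was added to cultures kept at 37°C in 5% carbon dioxide.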

[4] = ratio of KD for HRAS wild-type protein to KD for KRAS
[5] = ratio of KD for GDP-bound NRAS wild-type protein to KD for KRAS
[6] = ratio of the KD value with respect to HRAS wild-type protein to the KD value with respect to KRAS
[7] = ratio of the KD value with respect to GDP-bound NRAS wild-type protein to the KD value with respect to KRAS

SMILES | HRAS /KRAS [1, 4] | NRAS /KRAS [2, 5] | IC50 [3] | HRAS /KRAS [1, 6] | NRAS /KRAS [2, 7] | HRAS /KRAS ([1]; ratio of KD value for HRAS wild-type protein to KD value for KRAS (SPR)) | NRAS /KRAS ([2]; ratio of KD value for GDP-bound NRAS wild-type protein to KD value for KRAS (SPR))
CCCCN1CC(=O)N(C)[C@@H](Cc2ccc(C)cc2)C(=O)N(C)CC(=O)N[C@@H](CCc2ccc(C(F)(F)F)c(Cl)c2)C(=O)N2CCC[C@H]2C(=O)NC2(CCCC2)C(=O)N(C)[C@@H](C2CCCC2)C(=O)N(C)[C@H](C(=O)N2CCOCC2)CC(=O)N(C)[C@@H](CC(C)C)C(=O)N[C@@H]([C@@H](C)CC)C(=O)N(C)CC1=O [PP0021] ([NMeL]I[Sar][NBuGly][NMePhe(4-Me)][Sar][hPhe(3-Cl-4-CF3)]P[Ac5c][NMeGly(cPent)][NMeD]-Morpholide; lactam N-11) | C (A compound having a KD ratio of 0.1 or more and less than 3 is denoted as C) | C (A compound having a KD ratio of 0.1 or more and less than 3 is denoted as C) | 9.8 nM |  |  |  | 
CCCN1C(=O)CN(C)C(=O)CN(C)C(=O)[C@H]([C@@H](C)CC)NC(=O)[C@H](CC(C)C)N(C)C(=O)C[C@@H](C(=O)N2CCOCC2)N(C)C(=O)[C@H](C2CCCC2)N(C)C(=O)C2(CCCC2)NC(=O)[C@@H]2CCCN2C(=O)[C@H](CCc2ccc(Cl)c(Cl)c2)NC(=O)CN(C)C(=O)[C@@H]1Cc1ccc(C(F)(F)F)cc1 [PP0232] ([NMeL]I[Sar][Sar][NPrPhe(4-CF3)][Sar][hPhe(3,4-Cl2)]P[Ac5c][NMeGly(cPent)][NMeD]-Morpholide; lactam N-11) | B (a compound having 3 or more and less than 10 is denoted as B) | B (a compound having 3 or more and less than 10 is denoted as B) | 4.7 nM |  |  |  | 
CC[C@H](C)[C@@H]1NC(=O)[C@H](CC)N(C)C(=O)C[C@@H](C(=O)N(C)C)N(CC)C(=O)[C@H](C2CCCC2)N(C)C(=O)C2(CCC2)NC(=O)[C@@H]2CCN2C(=O)[C@H](CCc2cc(F)c(C(F)(F)F)c(F)c2)NC(=O)CN(C)C(=O)[C@H](Cc2ccc(C(F)(F)F)cc2)N2CCCC[C@@H](C2=O)N(C)C(=O)CN(C)C1=O [PP0660] |  |  | 131 nM | B (a compound having 3 or more and less than 10 is denoted as B) | B (a compound having 3 or more and less than 10 is denoted as B) |  | 
CCCN1C(=O)CN(C)C(=O)[C@@H]2CCN2C(=O)[C@H]([C@@H](C)CC)NC(=O)[C@H](CC(C)C)N(C)C(=O)C[C@@H](C(=O)N2CCOCC2)NC(=O)[C@H](C2CCCC2)N(C)C(=O)C2(CCC2)NC(=O)[C@@H]2C[C@@H](OCC)CN2C(=O)[C@H](CCc2ccc(C(F)(F)F)c(Cl)c2)NC(=O)CN(C)C(=O)[C@@H]1Cc1ccc(C(F)(F)F)cc1 [PP0342] ([NMeL]I[Aze][Sar][NPrPhe(4-CF3)][Sar][hPhe(3-Cl-4-CF3)][Hyp](Et)[Ac4c][NMeGly(cPent)]D-Morpholide; lactam N-11) | B (a compound having 3 or more and less than 10 is denoted as B) | B (a compound having 3 or more and less than 10 is denoted as B) | 141 nM |  |  |  | 
CCO[C@@H]1C[C@H]2C(=O)NC3(CC(C)(C)C3)C(=O)N(C)[C@@H](C(CC)CC)C(=O)N(C)[C@H](C(=O)N(C)C)CC(=O)N(C)[C@@H](C(C)C)C(=O)N[C@@H]([C@@H](C)CC)C(=O)N(C)CC(=O)N(C)[C@H]3C/C=C\CCN(C3=O)[C@@H](Cc3ccc(C(F)(F)F)cc3)C(=O)N(C)CC(=O)N[C@@H](CCc3ccc(C(F)(F)F)c(Cl)c3)C(=O)N2C1 [PP2140] |  |  | 24.7 nM | A (a compound having 10 or more and less than 20 is denoted as A) | AA (a compound having 20 or more is denoted as AA) |  | 
CCC[C@H]1C(=O)N[C@@H]([C@@H](C)CC)C(=O)N(C)CC(=O)N(C)[C@H]2C/C=C\CCN(C2=O)[C@@H](Cc2ccc(C(F)(F)F)cc2)C(=O)N(C)CC(=O)N[C@@H](CCc2cc(F)c(C(F)(F)F)c(F)c2)C(=O)N2C[C@H](OCC)C[C@H]2C(=O)NC2(CC(C)(C)C2)C(=O)N(C)[C@@H]([C@@H](C)CC)C(=O)N(C)[C@H](C(=O)N(C)C)CC(=O)N1C [PP1941] |  |  | 9.2 nM | A (a compound having 10 or more and less than 20 is denoted as A) | A (a compound having 10 or more and less than 20 is denoted as A) |  | 
C#CC[C@H]1C(=O)N[C@@H]([C@@H](C)CC)C(=O)N(C)CC(=O)N(C)[C@H]2C/C=C\CCN(C2=O)[C@@H](Cc2ccc(C(F)(F)F)cc2)C(=O)N(C)CC(=O)N[C@@H](CCc2ccc(C(F)(F)F)c(OC)c2)C(=O)N2C[C@H](OCC)C[C@H]2C(=O)NC2(CCC2)C(=O)N(C)[C@@H](C2CCCC2)C(=O)N(C)[C@H](C(=O)N(C)CCC)CC(=O)N1C [PP2059] |  |  | 4.9 nM | A (a compound having 10 or more and less than 20 is denoted as A) | A (a compound having 10 or more and less than 20 is denoted as A) |  | 
CCO[C@@H]1C[C@H]2C(=O)N[C@@]3(C)CCCCCCC[C@@H](C(=O)N[C@@H]([C@@H](C)CC)C(=O)N(C)CC(=O)N(C)[C@H]4CCCCN(C4=O)[C@@H](Cc4ccc(C(F)(F)F)cc4)C(=O)N(C)CC(=O)N[C@@H](CCc4cc(F)c(C(F)(F)F)c(F)c4)C(=O)N2C1)N(C)C(=O)C[C@@H](C(=O)N1CCOCC1)N(C)C(=O)[C@H](C1CCCC1)N(C)C3=O [PP0993] | B (a compound having 3 or more and less than 10 is denoted as B) | B (a compound having 3 or more and less than 10 is denoted as B) | 332 nM |  |  |  | 
CC[C@H](C)[C@@H]1NC(=O)[C@H](CC(C)C)N(C)C(=O)C[C@@H](C(=O)N2CCOCC2)N(C)C(=O)[C@H](C2CCCC2)N(C)C(=O)C2(CCC2)NC(=O)[C@@H]2C[C@@H](C(F)(F)F)CN2C(=O)[C@H](CCc2cc(F)c(C(F)(F)F)c(F)c2)NC(=O)CN(C)C(=O)[C@H](Cc2ccc(C(F)(F)F)cc2)N2CCCC[C@@H](C2=O)N(C)C(=O)CN(C)C1=O [PP0809] | B (a compound having 3 or more and less than 10 is denoted as B) | B (a compound having 3 or more and less than 10 is denoted as B) | 8.4 nM |  |  |  | 
CCO[C@@H]1C[C@H]2C(=O)NC3(CC(C)(C)C3)C(=O)N(C)[C@@H](C3CCCC3)C(=O)N(C)[C@H](C(=O)N(C)CC)CC(=O)N(C)[C@@H](CC)C(=O)N[C@@H]([C@@H](C)CC)C(=O)N(C)CC(=O)N(C)[C@H]3C/C=C\CCN(C3=O)[C@@H](Cc3ccc(C)cc3)C(=O)N(C)CC(=O)N[C@@H](CCc3ccc(C(F)(F)F)c(OC)c3)C(=O)N2C1 [PP1872] |  |  | 12.4 nM |  |  | A (a compound having 10 or more and less than 20 is denoted as A) | A (a compound having 10 or more and less than 20 is denoted as A)
CCO[C@@H]1C[C@H]2C(=O)NC3(CC(C)(C)C3)C(=O)N(C)[C@@H](C3CCCC3)C(=O)N(C)[C@H](C(=O)N(C)C)CC(=O)N(C)[C@H]3CCCCCc4ccc(cc4)C[C@@H](C(=O)N(C)CC(=O)N[C@@H](CCc4ccc(C(F)(F)F)c(OC)c4)C(=O)N2C1)N1CC/C=C\C[C@@H](C1=O)N(C)C(=O)CN(C1CC1)C(=O)[C@H]([C@@H](C)CC)NC3=O [PP3075] | A (a compound having 10 or more and less than 20 is denoted as A) | A (a compound having 10 or more and less than 20 is denoted as A) | 1.1 nM |  |  |  | 
CCO[C@@H]1C[C@H]2C(=O)NC3(CC(C)(C)C3)C(=O)N(C)[C@@H](C3CCCCC3)C(=O)N(C)[C@H](C(=O)N(C)C)CC(=O)N(C)[C@@H](CC)C(=O)N[C@@H]([C@@H](C)CC)C(=O)N(C)CC(=O)N(C)[C@H]3C/C=C\CCN(C3=O)[C@@H](Cc3ccc(C(F)(F)F)cc3)C(=O)N(C)CC(=O)N[C@@H](CCc3cc(F)c(C(F)(F)F)c(F)c3)C(=O)N2C1 [PP1942] |  |  | 25.7 nM | A (a compound having 10 or more and less than 20 is denoted as A) | AA (a compound having 20 or more is denoted as AA) |  | 
CCO[C@@H]1C[C@H]2C(=O)NC3(CCC3)C(=O)N(C)[C@@H](C3CCCC3)C(=O)N(C)[C@H](C(=O)N3CCOCC3)CC(=O)N(C)[C@@H](Cc3ccc(F)c(F)c3)C(=O)N[C@@H]([C@@H](C)CC)C(=O)N(C)CC(=O)N(C)[C@H]3CCCCCN(C3=O)[C@@H](Cc3ccc(C(F)(F)F)cc3)C(=O)N(C)CC(=O)N[C@@H](CCc3cc(F)c(C(F)(F)F)c(F)c3)C(=O)N2C1 [PP0928] | B (a compound having 3 or more and less than 10 is denoted as B) | A (a compound having 10 or more and less than 20 is denoted as A) | 182 nM |  |  |  | 
CCO[C@@H]1C[C@H]2C(=O)NC3(CCC3)C(=O)N(C)[C@@H](C3CCCC3)C(=O)N(CC)[C@H](C(=O)N3CCOCC3)CC(=O)N(C)[C@@H](COC)C(=O)N[C@@H]([C@@H](C)CC)C(=O)N(C)CC(=O)N(C)[C@H]3CCCCCN(C3=O)[C@@H](Cc3ccc(C(F)(F)F)cc3)C(=O)N(C)CC(=O)N[C@@H](CCc3cc(F)c(C(F)(F)F)c(F)c3)C(=O)N2C1 [PP0946] | B (a compound having 3 or more and less than 10 is denoted as B) | A (a compound having 10 or more and less than 20 is denoted as A) | 378 nM |  |  |  | 
CCCN1C(=O)CN(C)C(=O)CN(C)C(=O)[C@H]([C@@H](C)CC)NC(=O)[C@H](CC(C)C)N(C)C(=O)C[C@@H](C(=O)N2CCOCC2)N(C)C(=O)[C@H](C2CCCC2)N(C)C(=O)C2(CCCC2)NC(=O)[C@@H]2C[C@@H](OCC)CN2C(=O)[C@H](CCc2ccc(C(F)(F)F)c(Cl)c2)NC(=O)CN(C)C(=O)[C@@H]1Cc1ccc(C(F)(F)F)cc1 [PP0233] ([NMeL]I[Sar][Sar][NPrPhe(4-CF3)][Sar][hPhe(3-Cl-4-CF3)][Hyp](Et)[Ac5c][NMeGly(cPent)][NMeD]-Morpholide; lactam N-11) | C (A compound having a KD ratio of 0.1 or more and less than 3 is denoted as C) | B (a compound having 3 or more and less than 10 is denoted as B) | 1.6 nM |  |  |  | 
